Assay results as given in patent publication EP0041644B1 (priority 1980, dated 1981).

Columns and labels:
[1] = tested on: L-1210 Leukemia; test: L-1210 Leukemia (Table IX); type: in vivo, mice
Method: The sodium and ammonium salts of the present invention were tested against transplantable mouse tumors as indicated below.

[2] = Water solubility

For `O=C1[O][Pt-2]2([NH2+]CC3(CCCCC3)C[NH2+]2)[O]C(=O)C1O` [2-hydroxymalonato (1,1-diaminomethylcyclohexane)platinum (II)], the “Average Weight Change,g” value ([1]; 2 mg/kg/inj ip, qd 1→9) was -1.3 g, the “Effect MST % T/C” value ([1]; 2 mg/kg/inj ip, qd 1→9) was 138 % T/C and the “MST Days” value ([1]; 2 mg/kg/inj ip, qd 1→9) was 9.0 days. The “Survivors Day 5(45)” value ([1]; 2 mg/kg/inj ip, qd 1→9) was 6/6, the “Average Weight Change,g” value ([1]; 4 mg/kg/inj ip, qd 1→9) was -1.7 g and the “Effect MST % T/C” value ([1]; 4 mg/kg/inj ip, qd 1→9) was 192 % T/C. The “MST Days” value ([1]; 4 mg/kg/inj ip, qd 1→9) was 12.5 days, the “Survivors Day 5(45)” value ([1]; 4 mg/kg/inj ip, qd 1→9) was 6/6 and the “Average Weight Change,g” value ([1]; 8 mg/kg/inj ip, qd 1→9) was -2.1 g. The “Effect MST % T/C” value ([1]; 8 mg/kg/inj ip, qd 1→9) was 269 % T/C, the “MST Days” value ([1]; 8 mg/kg/inj ip, qd 1→9) was 17.5 days and the “Survivors Day 5(45)” value ([1]; 8 mg/kg/inj ip, qd 1→9) was 6/6. For the same compound, the “Average Weight Change,g” value ([1]; 12 mg/kg/inj ip, Day 1) was -1.6 g, the “Effect MST % T/C” value ([1]; 12 mg/kg/inj ip, Day 1) was 185 % T/C and the “MST Days” value ([1]; 12 mg/kg/inj ip, Day 1) was 12.0 days. The “Survivors Day 5(45)” value ([1]; 12 mg/kg/inj ip, Day 1) was 6/6, the “Average Weight Change,g” value ([1]; 12 mg/kg/inj ip, qd 1→9) was -2.1 g and the “Effect MST % T/C” value ([1]; 12 mg/kg/inj ip, qd 1→9) was 269 % T/C. The “MST Days” value ([1]; 12 mg/kg/inj ip, qd 1→9) was 17.5 days, the “Survivors Day 5(45)” value ([1]; 12 mg/kg/inj ip, qd 1→9) was 6/6 and the “Average Weight Change,g” value ([1]; 18 mg/kg/inj ip, Day 1) was -2.0 g. The “Effect MST % T/C” value ([1]; 18 mg/kg/inj ip, Day 1) was 169 % T/C, the “MST Days” value ([1]; 18 mg/kg/inj ip, Day 1) was 11.5 days and the “Survivors Day 5(45)” value ([1]; 18 mg/kg/inj ip, Day 1) was 6/6. For the same compound, the “Average Weight Change,g” value ([1]; 24 mg/kg/inj ip, Day 1) was -2.8 g, the “Effect MST % T/C” value ([1]; 24 mg/kg/inj ip, Day 1) was 223 % T/C and the “MST Days” value ([1]; 24 mg/kg/inj ip, Day 1) was 14.5 days. For the same compound, the “Survivors Day 5(45)” value ([1]; 24 mg/kg/inj ip, Day 1) was 6/6, the “Average Weight Change,g” value ([1]; 36 mg/kg/inj ip, Day 1) was -3.6 g and the “Effect MST % T/C” value ([1]; 36 mg/kg/inj ip, Day 1) was 246 % T/C. For the same compound, the “MST Days” value ([1]; 36 mg/kg/inj ip, Day 1) was 16.0 days, the “Survivors Day 5(45)” value ([1]; 36 mg/kg/inj ip, Day 1) was 5/6 and the “maximum T/C” value ([1]; qd 1→9 (cis-DDP 2.4, parent 8 and 12, sodium salt 12 mg/kg/injection)) was 269%. For the same compound, the “maximum T/C” value ([1]; single ip injection at maximum tolerated dose (cis-DDP 8 mg/kg, the two others 36 mg/kg)) was 246% and the “Water-solubility at room temperature” value [2] was less than 1600 µg/mL.
